# Measurements as given in patent US6416949B1, “Method of synthesizing diverse collections of oligomers” (Affymax, Inc., priority 1991, dated 2002).
# pKd: −log10 of the molar value.
# Key:
# Monoclonal antibody 3E7 [1] = test: magnetic selection of peptide beads by microbead-conjugated 3E7, analysed by flow cytometry; format: binding; details: 16 hr incubation at 4 degrees C in PBS, high strength magnet
# Method: After a 16 hr incubation at 4 degrees C, beads which bind the 3E7 antibody are selected using a high strength magnet. The selected beads are then analyzed by flow cytometry.
# Monoclonal antibody 3E7 [2] = test: staining of peptide beads with fluorescently labeled antibody 3E7 and FACS sorting; format: binding; details: peptide on oligonucleotide-tagged beads
# Method: The beads coupled with the 95 mer and YGGFL were mixed with the beads that were coupled to the 110 mer and F in the ratio of 1:20. Thus, 0.1 mg of 95 mer/YGGFL beads (2 million beads) were mixed with 2.0 mg of the 110 mer/Phe beads (40 million beads). The mixture was suspended in blocking buffer (PBS, 1% BSA, and 0.05% Tween-20) and incubated at room temperature for 1 hr. The beads were next pelleted by centrifugation and resuspended in a solution of an FITC-labeled monoclonal antibody 3E7 that binds the peptide YGGFL (1 μg/mL). The suspension was incubated 0.5 hr on ice and then centrifuged to isolate the bead pellet.
# The beads were resuspended in PBS for delivery into the fluorescence activated cell sorting (FACS) instrument (Becton Dickinson FACSORT Plus). Beads that had bound to the fluorescently labeled antibody were identified by their acquired fluorescence, and fluorescent beads were isolated by sorting into PCR tubes. One, ten, or one hundred fluorescent beads were sorted into each PCR tube. […]
# The beads were resuspended in PBS for delivery into the fluorescence activated cell sorting (FACS) instrument (Becton Dickinson FACSORT Plus). Beads that had bound to the fluorescently labeled antibody were identified by their acquired fluorescence (see FIG. 10), and homogeneous samples of either fluorescent or non-fluorescent beads were isolated by sorting into PCR tubes. […]
# Monoclonal antibody 3E7 [3] = details: solution assay, MAb 3E7; read-out: equilibrium binding constant (Kd); cited from earlier work
substance,measurement,setting,value
"pentapeptide L-Tyr-Gly-Gly-L-Phe-L-Leu, ligand of monoclonal antibody 3E7 [YGGFL]",selection of peptide-bearing beads by 3E7 antibody,Monoclonal antibody 3E7 [1],only beads displaying the peptide YGGFL are selected
same,binding of the peptide by fluorescently labeled antibody 3E7,Monoclonal antibody 3E7 [2],high affinity
same,pKd,Monoclonal antibody 3E7 [3],8.18
